Values quoted from earlier work in patent US8062666B2 (priority 2001, dated 2011).
Like-named read-outs stand apart in the source and are kept apart here.

What was measured:
[1] = coated spheroid extended release dosage form of WO 99/22724, dissolution specification
[2] = 0.2 M sodium chloride

In the case of `COc1ccc(C(CN(C)C)C2(O)CCCCC2)cc1.Cl` (racemic) [Venlafaxine hydrochloride, (R/S)-1-[2-(dimethylamino)-1-(4-methoxyphenyl)-ethyl]cyclohexanol hydrochloride], the “Average % venlafaxine HCL release” value ([1]; 2 hrs) is given as less than 30%, the “Average % venlafaxine HCL release” value ([1]; 4 hrs) is given as 30-55% and the “Average % venlafaxine HCL release” value ([1]; 8 hrs) is given as 55-80%. For the same compound, the “Average % venlafaxine HCL release” value ([1]; 12 hrs) was 65-90%, the “Average % venlafaxine HCL release” value ([1]; 24 hrs) was greater than 80% and the “octanol:water partition coefficient” value [2] was 0.43. For the same compound, the “time at which peak blood plasma levels appeared” value (conventional release dosage forms (tablets)) was 2 to 4 h and the “time for which plasma levels rose after administration (time to peak)” value (extended release dosage forms) was “five to eight”.
